The values that follow come from US7034016B2, “8-phenyl-6,9-dihydro-[1,2,4]triazolo[3,4-i]purin-5-one derivatives” (Almirall Prodesfarma, S.A., priority 1999, dated 2006).

For this experiment, the target named is T1, cyclic GMP specific phosphodiesterase (PDE 5) (Homo sapiens, UniProt O76074).
T1 construct: isolated from human platelet lysates by ion exchange chromatography using a Mono-Q column; from tissue; host or cells: human platelets (lysate, Mono-Q ion exchange fraction)
As to the kind of experiment: PDE 5 inhibitory activity (enzyme isolated from human platelet lysates, [3H]-cyclic GMP substrate). Type of experiment: biochemical. As to conditions: PDE 5 from human platelet lysates; 0.25 mM [3H]-cyclic GMP as substrate. The method, then: The cyclic GMP specific phosphodiesterase (PDE 5) was isolated from human platelet lysates by ion exchange chromatography using a Mono-Q column. The enzyme activity was determined using 0.25 mM [3H]-cyclic GMP as substrate. The purification of the enzyme and the assessment of the PDE 5 inhibitory activity of our compounds were performed essentially as described by Gristwood et al., Br. J. Pharmacol. 1992, 105, 985–991.

On to `CCCOc1ccc(S(=O)(=O)N2CC(CN(C)C)C2)cc1-c1nc2c([nH]1)c1nncn1c(=O)n2CCC` [Example 91, 8-[5-(3-Dimethylaminomethylazetidine-1-sulfonyl)-2-propoxyphenyl]-6-propyl-6,9-dihydro-[1,2,4]triazolo[3,4-i]purin-5-one], for which the IC50 (usually the concentration that gives 50% inhibition) was 0.97 nM.

In turn, `CCCOc1ccc(S(=O)(=O)N2CCCN(CCO)CC2)cc1-c1nc2c([nH]1)c1nncn1c(=O)n2CCC` [Example 105, 8-{5-[4-(2-Hydroxyethyl)-[1,4]diazepane-1-sulfonyl]-2-propoxyphenyl}-6-propyl-6,9-dihydro-[1,2,4]triazolo[3,4-i]purin-5-one] returned an IC50 of 0.34 nM. This IC50 lies about 2.9-fold lower than the previous one.

`CCCCOc1ccc(S(=O)(=O)N2CCN(C)CC2)cc1-c1nc2c([nH]1)c1nncn1c(=O)n2CC` [Example 6]: half-maximal inhibition (IC50) required 13 nM. This IC50 is about 38-fold higher than that of the molecule before.

Turning to `CCCCn1c(=O)n2cnnc2c2[nH]c(-c3cc(S(=O)(=O)N4CCN(C(C)(C)CO)CC4)ccc3OCCC)nc21` [Example 138, 6-Butyl-8-{5-[4-(2-hydroxy-1,1-dimethylethyl)piperazine-1-sulfonyl]-2-propoxyphenyl}-6,9-dihydro-[1,2,4]triazolo[3,4-i]purin-5-one], inhibition was half-maximal at 0.84 nM (IC50).

Regarding `CCCOc1ccc(S(=O)(=O)Nc2ccncc2)cc1-c1nc2c([nH]1)c1nncn1c(=O)n2CCC` [Example 17, 3-(5-Oxo-6-propyl-6,9-dihydro-5H-[1,2,4]triazolo[3,4-i]purin-8-yl)-4-propoxy-N-pyridin-4-yl-benzenesulphonamide], it took 1.5 nM to reach half-maximal inhibition (IC50).

`CCCCn1c(=O)n2cnnc2c2[nH]c(-c3cc(S(=O)(=O)N4CCN(CCO)CC4)ccc3OCCC)nc21` [Example 43, 6-Butyl-8-(2-propoxy-5-[4-(2-hydroxyethyl)piperazine-1-sulphonyl]phenyl}-6,9-dihydro[1,2,4]triazolo[3,4-i]purin-5-one]: the IC50 was found to be 4 nM.

`CCCOc1ccc(S(=O)(=O)N2CCN(C)CC2)cc1-c1nc2c([nH]1)c1nncn1c(=O)n2CCC` [Example 18, 8-[5-(4-Methylpiperazinosulphonyl)-2-propoxyphenyl]-6-propyl-6,9-dihydro-[1,2,4]triazolo[3,4-i]purin-5-one]: half-maximal inhibition (IC50) required 14 nM.

The molecule `CCCOc1ccc(S(=O)(=O)N2C[C@@H]3C[C@H]2CN3C)cc1-c1nc2c([nH]1)c1nncn1c(=O)n2CCC` [Example 89, 8-[5-((1S,4S)-5-Methyl-2,5-diazabicyclo[2.2.1]heptane-2-sulfonyl)-2-propoxyphenyl]-6-propyl-6,9-dihydro-[1,2,4]triazolo[3,4-i]purin-5-one] returned an IC50 of 0.51 nM. Against the preceding molecule, the IC50 is about 27-fold lower.

The molecule `CCCOc1ccc(S(=O)(=O)N2CCN(C)CC2)cc1-c1nc2c([nH]1)c1nncn1c(=O)n2CC` [Example 4, 6-Ethyl-8-[5-(4-methylpiperazine-1-sulphonyl)-2-propoxyphenyl]-6,9-dihydro-[1,2,4]triazolo[3,4-i]purin-5-one] gave an IC50 of 11 nM.

Molecule `CCCOc1ccc(S(=O)(=O)N2C[C@@H](C)N[C@@H](C)C2)cc1-c1nc2c([nH]1)c1nncn1c(=O)n2CCC` [Example 93, 8-[5-((3R,5S)-3,5-Dimethylpiperazine-1-sulfonyl)-2-propoxyphenyl]-6-propyl-6,9-dihydro-[1,2,4]triazolo[3,4-i]purin-5-one] yielded an IC50 of 0.85 nM.

In turn, “N-(3-Dimethylamino-2,2-dimethylpropyl)-3-(oxopropyl-6,9-dihydro-5H-[1,2,4]triazolo[3,4-i]purin-8-yl)-4-propoxybenzenesulfonamide [Example 101]” had a half-maximal inhibitory concentration (IC50) of 0.54 nM.

On to `CCCOc1ccc(S(=O)(=O)N2CCN[C@@H](C)C2)cc1-c1nc2c([nH]1)c1nncn1c(=O)n2CCC` [Example 86, 8-[5-((S)-3-Methylpiperazine-1-sulfonyl)-2-propoxyphenyl]-6-propyl-6,9-dihydro-[1,2,4]triazolo[3,4-i]purin-5-one], for which half-maximal inhibition (IC50) required 1.4 nM.

With “8-[5-(4-Methyl-[1,4]diazepane-1-sulfonyl)-2-propoxyphenyl]-6-propyl-6,9-dihydro-[1,2,4]triazolo[3,4-i]purin,5-one [Example 22]”, the IC50 came to 3.7 nM.

Regarding `CCCOc1ccc(S(=O)(=O)N2CCN(CCO)CC2)cc1-c1nc2c([nH]1)c1nncn1c(=O)n2CCC` [Example 27, 8-{5-[4-(2-Hydroxyethyl)piperazine-1-sulphonyl]-2-propoxyphenyl}-6-propyl-6,9-dihydro-[1,2,4]triazolo[3,4-i]purin-5-one], half-maximal inhibition (IC50) was put at 4 nM.

For the molecule `CCCOc1ccc(S(=O)(=O)N2CCN(C(C)(C)CO)CC2)cc1-c1nc2c([nH]1)c1nncn1c(=O)n2CCC` [Example 108, 8-{5-[4-(2-Hydroxy-1,1-dimethylethyl)piperazine-1-sulfonyl]-2-propoxyphenyl}-6-propyl-6,9-dihydro-[1,2,4]triazolo[3,4-i]purin-5-one], the IC50 amounted to 1.6 nM.
